Patent US6656699B2, “Methods and compositions for glycosidase assays” (Reddy US Therapeutics, Inc., priority 2000, dated 2003)

Tests used:
[1] = target: T1, heparanase (Pedobacter heparinus, UniProt Q59289); experiment: Heparanase assay: biotin-HS digestion with heparanase with or without excess unlabeled HS; type: biochemical, bacterial; details: 50 fold (5 μg) excess of unlabeled HS
T1 construct: purchased Seikagaku
Procedure: Biotin-labeled HS from Example 1 was digested with heparanase, and the reaction containing undegraded and degraded HS was bound to in a biotin-binding plate (FIG. 1). Streptavidin, conjugated with an enzyme, was added to the binding plate. Quantitation of the color reaction measured the amount of available biotin binding sites. A decrease in color from a known amount reflects HS digestion by heparanase.
A lyophilized powder of heparanase (Heparanase III obtained from Seikagaku) containing 0.1 units of enzymatic activity was hydrated in 100 μl of Reaction Buffer (3.33 mM calcium acetate pH 7.0, containing 0.1 mg/ml BSA). This solution was then diluted to a working concentration of heparanase solution (0.01 micro-units to 1 milli-unit) in Reaction Buffer. Enzyme activity was defined by the manufacturer of the heparanase (Seikagaku) as follows: one unit of enzyme activity is defined as amount required to generate 1 μmole of hexuronic acid per minute. Biotin-HS was diluted to a desired concentration in Reaction Buffer.
To determine heparanase activity, 10 μl of heparanase solution was mixed with 200 μl of the biotin-HS substrate in a 96 well plate. The reaction was incubated at 43° C. for 1 hour. […] Color development in the wells was assessed by measuring the optical density at 450 nm in a microplate reader (Labsystems, Muliskan Ascent model). […]

[2] = system: biotin-HS; experiment: Digestion of biotin-HS by enzymes, detected with streptavidin-enzyme conjugate; type: biochemical; details: protease in place of heparanase; FIG. 6

T1 sequence (Q59289 25-659): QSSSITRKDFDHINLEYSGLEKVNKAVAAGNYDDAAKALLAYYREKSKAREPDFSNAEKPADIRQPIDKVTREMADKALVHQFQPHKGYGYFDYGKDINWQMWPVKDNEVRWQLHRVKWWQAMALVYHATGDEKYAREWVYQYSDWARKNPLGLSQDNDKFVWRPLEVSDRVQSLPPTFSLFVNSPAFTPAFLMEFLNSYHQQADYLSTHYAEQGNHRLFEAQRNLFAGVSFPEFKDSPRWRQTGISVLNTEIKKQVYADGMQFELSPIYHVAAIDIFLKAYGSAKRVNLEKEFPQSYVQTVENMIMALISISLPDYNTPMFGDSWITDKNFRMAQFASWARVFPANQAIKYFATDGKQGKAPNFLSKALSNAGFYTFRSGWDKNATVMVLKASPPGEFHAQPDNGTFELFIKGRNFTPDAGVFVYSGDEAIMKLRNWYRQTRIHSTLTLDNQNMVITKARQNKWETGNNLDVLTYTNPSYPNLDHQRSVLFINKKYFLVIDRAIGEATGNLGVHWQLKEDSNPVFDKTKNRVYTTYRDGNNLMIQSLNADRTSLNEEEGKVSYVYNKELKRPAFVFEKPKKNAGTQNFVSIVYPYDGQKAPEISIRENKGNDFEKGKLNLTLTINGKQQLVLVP

Row | Substance | Inhibition of heparanase activity toward biotin-HS [1] | Activity leading to a decrease in the amount of biotin-HS detected by the assay [2]
1 | heparan sulfate [unlabeled HS] | approximately 60% | –
2 | trypsin | – | Neither protease tested (MMP or trypsin) demonstrated any activity
